Reference: patent US9844506B2, “Compositions and methods for affecting mood states” (priority 2013, dated 2017)

Experiments:
[1] = Interaction of nitric oxide with carriers, weight gain on bubbling NO gas (Example 2); assay type: physicochemical; conditions: NO bubbled 40 hr, 25° C.
Description: In this example, six experiments were carried out to investigate the interaction of nitric oxide with three carriers (HNC 157-62, HNC 157-65, and HNC 157-69) as well as with 1,3-propanediol, using experimental conditions similar to that described for Example 1. In addition three experiments were performed to prepare carriers containing 800 ppm and 500 ppm nitric oxide. HNC 157-62 was formed of 65% Phospholipon-90G (American Lecithin Company), 18% isopropyl palmitate (Kraft Chemicals), 8% capric caprylic triglycerides (RITA Corp.), and 9% propanediol (Dupont). HNC 157-65 was formed of 65% Phospholipon-90G, 13% isopropyl palmitate, 14% capric caprylic triglycerides, 3% propanediol, and 5% dimethyl isosorbide (Croda). HNC 157-69 was formed from 65% Phospholipon-90G, 16% isopropyl palmitate, and 19% capric caprylic triglycerides.
The compositions were generally prepared as follows. Isopropyl palmitate, capric caprylic triglyceride, propanediol (for HNC 157-62 and HNC 157-65), and dimethyl isosorbide (for HNC 157-65) were mixed together and warmed to 40° C. Phospholipon-90G was then gradually added to this liquid mixture by mixing it. Phospholipon-90G is typically received as individual pellets, and is mixed into the solution until fully dissolved. The mixture was subsequently filtered through a sieve to remove any undissolved Phospholipon-90G. […]

[2] = test system: microcirculation of the skin; experiment: Laser Doppler capillary blood flow in human female subjects, 10,000 ppm NO in closed chamber (Example 5); assay type: in vivo; conditions: applied to skin at 1/10% in alcohol
Description: The formulation used in these studies contained nitric oxide dispersed in a lipid matrix. […] Nitric oxide is a very rapid acting molecule, and these studies used a system that employed laser Doppler with a covered chamber. The formulation was placed into the chamber and then attached to the skin by an adhesive layer on the covering. This provided a stable measuring device as determined by multiple normal evaluations of the capillary blood flow without treatment of nitric oxide.
A known positive control, methyl nicotinate, was applied to the skin at a concentration of 1/10% in alcohol. […] The vascular dynamics are such that when the blood vessels dilate physical parameters follow Bernoulli's law. This states that as one increases the diameter of a tube containing a liquid to flow will increase but the pressure and the speed of the liquid will decrease. The laser Doppler device accurately measured these parameters.
The test product was labeled as 10,000 ppm NO (nitric oxide). The study participants had 100 mg of the test product applied in a closed Hilltop chamber on the forearm. […]
A Moor Instruments DRT4 Laser Doppler Blood Flow Monitor (Devon, England) was used in these studies. The laser Doppler technique measured blood flow in the microcapillaries of the skin that are close to the skin surface and the blood flow in underlying arterioles and venules that help to regulate skin temperature. […]

[3] = test system: cutaneous vascular system; experiment: Laser Doppler circulation in five human subjects, 10,000 ppm NO formulation (Example 8); assay type: in vivo; conditions: positive control formulation containing 0.1% methyl nicotinate
Description: This example illustrates delivery of nitric oxide formulations to five human subjects, using procedures and formulations similar to those discussed in Example 5. Each person served as their own control for the testing. A Moor Instruments Laser Doppler was used to determine circulation. […] The formulations used produce positive, almost immediate results when applied to the skin which, in these studies, was manifested by vasodilatation of the cutaneous vascular system.
For each subject, the following creams were applied: a negative control formulation (containing no NO), 0.010 gram of a 10,000 ppm NO formulation, 0.020 gram of a 10,000 ppm NO formulation, and a positive control formulation containing 0.1% methyl nicotinate. The formulations were prepared using procedures similar to those discussed in Example 1.

SMILES	% Wt. gain [1]	Wt. Gain [1]	laser Doppler response to positive control [2]	vasodilatation versus control untreated skin [3]
OCCCO [1,3-Propanediol, 1,3-propanediol]	0.09%	0.16 g		
COC(=O)c1cccnc1 [methyl nicotinate]			rapid response typical of the vasodilator	vasodilatation was observed
